Consider four molecules from patent US5773459A, “Urea- and thiourea-type compounds” (Sugen, Inc., priority 1995, dated 1998).

For one assay, the target named is T1, IGF-1R (Homo sapiens, UniProt P08069).
T1 construct: expressed in transfected cells; host or cells: 3T3/IGF-1R
Kind of assay: Cellular IGF-1 Receptor ELISA. The format is cell-based. The protocol:
Cellular IGF-1 Receptor ELISA (Version I)
(1). The cell line used in this assay is 3T3/IGF-1R, a cell line which overexpresses IGF-1 Receptor.
(2). 3T3/IGF-1 R is grown in an incubator with 5% CO2 at 37° C. The growth media is DMEM+10% FBS (heat inactivated)+2 mM L-Glutamine.
(3). For ELISA plate coating, the anti-IGF-1 R antibody named 17-69 is used. Antibodies are purified by the Enzymology Lab, SUGEN, Inc.
(10). Insulin-like growth factor-1 from Promega (Cat# G5111).
(2). […] Incubate for 1 day then replace medium to serum-free medium (90/ul) and incubate in 5% CO2 and 37° C. overnight.
2. ELISA Plate Coating and Blocking
(2). Remove the coating solution, and replace with 100 ul Blocking Buffer, and shake for 30 minutes. Remove the blocking buffer and wash the plate just before adding lysate.
(1). The drugs are tested in serum-free condition.
(2). Dilute drug stock (in 100% DMSO) 1:10 with DMEM in 96-well poly-propylene plate, and transfer 10 ul/well of this solution to the cells to achieve final drug dilution 1:100, and final DMSO concentration of 1.0%. Incubate the cells in 5% CO2 at 37° C for 2 hours.
(3). Prepare fresh cell lysis buffer (HNTG HNTG 2 ml EDTA 0.1 ml Na3VO4 0.1 ml Na4P207 0.1 ml H20 7.3 ml HNTG* 10 ml.
(4). After drug incubation for two hours, transfer 10 ul/well of 200 nM IGF-1 Ligand in PBS to the cells (Final Conc=20 nM), and incubate at 5% CO2 at 37° C. for 10 minutes.
(5). Remove media and add 100 ul/well HNTG* and shake for 10 minutes. Look at cells under microscope to see if they are adequately lysed.
(6). Use a 12-channel pipette to scrape the cells from the plate, and homogenize the lysate by repeat aspiration and dispense. Transfer all the lysate to the antibody coated ELISA plate [V.2.(2)], and shake for 1 hour.
(7). Remove the lysate, wash the plate, transfer anti-pTyr (1:3,000 with TBST) 100 ul/well, and shake for 30 minutes.
(7). Remove anti-pTyr, wash the plate, transfer detection antibody (1:3,000 with TBST) 100 ul/well, and shake for 30 minutes.
(8). Remove detection antibody, wash the plate, and transfer fresh ABTS/H2O2 (1.2 ul H2O2 to 10 ml ABTS) 100 ul/well to the plate to start color development.
(9). Measure OD (410 nm) in Dynatec MR5000, which is connected to Ingres.

Another assay deals with T2, PDGFR-beta (Homo sapiens, UniProt P09619).
T2 construct: the human glioblastoma line U1242 that expresses PDGFR-beta; endogenous in cells; host or cells: U1242 (U1242 MG) human glioblastoma
Kind of assay: PDGF-R Cellular Assay (cellular kinase ELISA). Format: cell-based. How it is done: Growth assays were carried out using human mammary epithelial SKBR3 (ATCC HTB30) cells (SKBR3 cells over-express HER2), SKOV3 (ATCC HTB77) human ovarian cancer cell line (SKOV3 cells also over-express HER2), A431 cells (A431 cells over-express EGFR) MCF7 human breast carcinoma cells, MCF7 cells overexpressing the HER2 kinase (MCF7-HER2), NIH3T3 cells, and NIH3T3 cells overexpressing the HER2 kinase (3T3-HER2.
The PDGF cellular kinase assay was carried out as follows: cells are lysed in 0.2M Hepes, 0.15M NaCl, 10% V/V glycerol, 0.04% Triton X-100, 5 mM EDTA, 5 mM Na+ vanadate and 2 mM Na+ pyrophosphate; cell lysates are then added to an ELISA plate coated with an anti-PDGF receptor antibody (Genzyme); ELISA plates are coated at 0.5 μg of antibody/well in 150 μl of PBS for 18 hours at 4° C. prior to the addition of the lysate; the lysate is incubated in the coated plates for 1 hour and then washed four times in TBST (35 mM Tris-HCl pH 7.0, 0.15M NaCl, 0.1% Triton X100); anti-phosphotyrosine antibody (100 μl in PBS) is added and the mixture is incubated for 30 minutes at room temperature; the wells were then washed four times in TBST, a secondary antibody conjugated to POD (TAGO) is added to each well, and the treated well are incubated for 30 minutes at room temperature; the wells are then washed four times in TBST, ABTS/H2 O2 solution is added to each well and the wells are incubated for two minutes; absorbance is then measured at 410 nm.
U1242 MG cells were plated in 96-well plates at a concentration of 5×10^4 cells/well in cultured media containing 0.5% FBS. The cells were incubated for 24 hours. The cells were then treated with a particular compound for 2 hours followed by the addition of 100 ng/ml PDGF-BB and incubation for 10 minutes.
Cells were lysed in 0.2M Hepes, 0.15M NaCl, 10% V/V glycerol, 0.04% Triton X-100, 5 mM EDTA, 5 mM Na+ vanadate and 2 mM Na+ pyrophosphate. Cell lysates were then added to an ELISA plate coated with an anti-PDGF receptor antibody (Genzyme). ELISA plates were coated at 0.5 μg of antibody/well in 150 μl of PBS for 18 hours at 4° C. prior to the addition of the lysate.
The lysate was incubated in the coated plates for 1 hour and then washed four times in TBST (35 mM Tris-HCl pH 7.0, 0.15M NaCl, 0.1% Triton X-100). Anti-phosphotyrosine antibody (100 μl in PBS) was added and the mixture was incubated for 30 minutes at room temperature. The wells were then washed four times in TBST, a secondary antibody conjugated to POD (TAGO) was added to each well, and the treated well were incubated for 30 minutes at room temperature. The wells were then washed four times in TBST, ABTS/H2 O2 solution was added to each well and the wells were incubated for two minutes. Absorbance was then measured at 410 nm.
In general terms: In an ELISA, binding on a coated surface is turned into a signal by an enzyme label.

Where [1] appears, read: 3T3/IGF-1R cells, IGF-1 stimulated, read-out: ELISA DATA: IGF-1R.
Setting [2] is: U1242 MG cells, PDGF-BB stimulated, read-out: ELISA DATA: PDGFR.

Read-outs that look alike come from different tables or passages of the source.

T2 sequence (P09619 33-1106): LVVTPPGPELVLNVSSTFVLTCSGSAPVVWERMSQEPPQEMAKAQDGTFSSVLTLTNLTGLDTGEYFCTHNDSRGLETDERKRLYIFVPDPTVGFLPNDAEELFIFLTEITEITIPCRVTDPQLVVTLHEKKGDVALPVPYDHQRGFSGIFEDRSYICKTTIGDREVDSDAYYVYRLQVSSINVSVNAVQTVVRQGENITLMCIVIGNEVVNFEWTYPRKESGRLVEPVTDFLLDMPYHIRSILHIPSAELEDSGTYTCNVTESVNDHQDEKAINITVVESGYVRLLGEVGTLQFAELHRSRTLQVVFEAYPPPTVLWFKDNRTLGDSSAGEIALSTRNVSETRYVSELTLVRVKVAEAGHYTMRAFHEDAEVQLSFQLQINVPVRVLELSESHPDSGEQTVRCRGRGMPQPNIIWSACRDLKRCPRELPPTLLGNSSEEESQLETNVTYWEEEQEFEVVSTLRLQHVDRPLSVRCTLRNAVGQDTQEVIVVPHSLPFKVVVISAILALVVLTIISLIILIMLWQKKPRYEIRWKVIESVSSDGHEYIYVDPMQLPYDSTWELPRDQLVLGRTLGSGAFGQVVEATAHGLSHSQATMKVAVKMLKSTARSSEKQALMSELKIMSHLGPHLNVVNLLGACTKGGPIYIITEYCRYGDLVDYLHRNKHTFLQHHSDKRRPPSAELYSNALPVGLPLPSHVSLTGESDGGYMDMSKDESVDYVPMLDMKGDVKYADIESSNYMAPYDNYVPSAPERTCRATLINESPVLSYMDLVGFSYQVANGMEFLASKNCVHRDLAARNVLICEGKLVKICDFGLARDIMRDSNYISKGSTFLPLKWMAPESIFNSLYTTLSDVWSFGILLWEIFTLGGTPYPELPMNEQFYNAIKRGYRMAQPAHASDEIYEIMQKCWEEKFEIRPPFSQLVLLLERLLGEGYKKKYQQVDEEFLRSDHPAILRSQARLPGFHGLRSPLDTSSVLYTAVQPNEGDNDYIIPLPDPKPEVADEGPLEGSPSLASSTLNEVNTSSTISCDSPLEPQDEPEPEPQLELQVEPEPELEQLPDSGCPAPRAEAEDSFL
T1 sequence (P08069 31-1367): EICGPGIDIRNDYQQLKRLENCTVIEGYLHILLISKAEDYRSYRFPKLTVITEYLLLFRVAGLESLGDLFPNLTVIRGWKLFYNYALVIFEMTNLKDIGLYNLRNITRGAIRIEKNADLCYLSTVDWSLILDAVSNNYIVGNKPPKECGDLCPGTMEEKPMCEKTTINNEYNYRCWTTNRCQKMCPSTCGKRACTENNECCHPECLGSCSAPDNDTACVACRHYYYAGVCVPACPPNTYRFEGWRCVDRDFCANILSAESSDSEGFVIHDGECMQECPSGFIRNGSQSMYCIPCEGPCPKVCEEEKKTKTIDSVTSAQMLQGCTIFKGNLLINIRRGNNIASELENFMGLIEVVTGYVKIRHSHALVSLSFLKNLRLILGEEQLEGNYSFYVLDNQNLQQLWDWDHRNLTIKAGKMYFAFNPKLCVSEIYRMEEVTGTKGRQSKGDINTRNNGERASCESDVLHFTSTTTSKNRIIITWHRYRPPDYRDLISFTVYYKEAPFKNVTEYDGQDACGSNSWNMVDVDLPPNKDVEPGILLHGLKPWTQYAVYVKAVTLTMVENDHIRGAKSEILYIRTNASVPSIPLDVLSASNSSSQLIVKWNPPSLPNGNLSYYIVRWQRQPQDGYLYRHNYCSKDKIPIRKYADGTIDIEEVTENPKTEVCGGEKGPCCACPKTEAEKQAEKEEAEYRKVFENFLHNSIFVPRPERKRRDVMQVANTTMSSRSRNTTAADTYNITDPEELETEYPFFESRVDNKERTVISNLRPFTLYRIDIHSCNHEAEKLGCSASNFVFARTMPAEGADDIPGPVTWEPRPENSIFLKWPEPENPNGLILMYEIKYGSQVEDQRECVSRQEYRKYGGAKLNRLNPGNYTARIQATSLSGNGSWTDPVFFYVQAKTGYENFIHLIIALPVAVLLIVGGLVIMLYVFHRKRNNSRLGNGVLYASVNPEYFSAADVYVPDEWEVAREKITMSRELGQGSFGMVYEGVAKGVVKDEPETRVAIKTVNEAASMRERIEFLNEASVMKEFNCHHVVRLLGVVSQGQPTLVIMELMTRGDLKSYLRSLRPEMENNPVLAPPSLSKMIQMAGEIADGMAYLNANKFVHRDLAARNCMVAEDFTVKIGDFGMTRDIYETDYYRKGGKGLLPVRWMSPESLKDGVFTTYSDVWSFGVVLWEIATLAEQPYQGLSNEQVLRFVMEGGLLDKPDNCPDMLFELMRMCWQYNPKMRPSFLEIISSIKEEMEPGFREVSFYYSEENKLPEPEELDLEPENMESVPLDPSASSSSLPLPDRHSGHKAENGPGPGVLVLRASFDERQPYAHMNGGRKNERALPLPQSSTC

For `CC(C)S(=O)(=O)c1csc(NC(=O)Nc2ccc(C(C)(C)C)cc2)c1Cl` [Example Z1, N-[3-Chloro-4-(isopropylsulfonyl)thien-2-yl]-N'-(4-t-butylphenyl)urea], the IC50 at IGF-1R (setting [1]) is above 100 µM; on PDGFR-beta (setting [2]), above 50 µM.
For `CC(C)S(=O)(=O)c1csc(NC(=O)Nc2cc(C(F)(F)F)cc(C(F)(F)F)c2)c1Cl` [Example Z2, N-[3-Chloro-4-(isopropylsulfonyl)thien-2-yl]-N'-(3,5-di-trifluoromethylphenyl)urea] the same measures were above 100 µM and above 50 µM.
Consider `O=C(Nc1ccc(SC(F)(F)F)cc1)Nc1ccc(Oc2ccc(Cl)cc2Cl)nc1` [Example Z3], for which the IC50 on IGF-1R is 16.5 µM; against PDGFR-beta, above 100 µM.
On to `N#Cc1ccc(NC(=S)Nc2ccc(S(=O)(=O)N3CCCCC3)cc2)cc1` [Example Z4, N-(4-Cyanophenyl)-N'-[4-[(piperid-1-yl)sulfonyl]phenyl]thiourea], for which the IC50 at IGF-1R (setting [1]) and on PDGFR-beta (setting [2]) was above 100 µM throughout.
